What was measured:
[1] = molecular target: T1, recombinant full-length WRN protein (1-1432) (Homo sapiens, UniProt Q14191); experiment: WRN unwinding activity, fluorogenic 384-well assay (Example A); format: biochemical; conditions: WRN unwinding activity, 4 hr; Table 2; read-out: 4 hr UNW pIC50 (converted)
T1 construct: recombinant full-length WRN protein (1-1432)
In short: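 200 pM enzyme (2× stock) preincubated with compound 4 h at ambient temperature, then 200 μM ATP and 12 nM quenched TAMRA-labelled dsDNA (2× stocks) added for 60 min; EDTA-quenched. Buffer 25 mM Tris pH 8.0, 5 mM NaCl, 2 mM MgCl2. Fluorescence at 525/598 nm; pIC50 from four-parameter fit.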

[2] = system: SW48 human colorectal cancer cells (MSI-H cancer cells); experiment: SW48 cell viability, CellTiter-Glo, 120 hours (Example B); conditions: Homo sapiens, SW48, 120 h, read-out: SW48 pCC50, SW48 cell viability, 120 hours incubation (converted); Table 2

T1 sequence (Q14191 whole entry): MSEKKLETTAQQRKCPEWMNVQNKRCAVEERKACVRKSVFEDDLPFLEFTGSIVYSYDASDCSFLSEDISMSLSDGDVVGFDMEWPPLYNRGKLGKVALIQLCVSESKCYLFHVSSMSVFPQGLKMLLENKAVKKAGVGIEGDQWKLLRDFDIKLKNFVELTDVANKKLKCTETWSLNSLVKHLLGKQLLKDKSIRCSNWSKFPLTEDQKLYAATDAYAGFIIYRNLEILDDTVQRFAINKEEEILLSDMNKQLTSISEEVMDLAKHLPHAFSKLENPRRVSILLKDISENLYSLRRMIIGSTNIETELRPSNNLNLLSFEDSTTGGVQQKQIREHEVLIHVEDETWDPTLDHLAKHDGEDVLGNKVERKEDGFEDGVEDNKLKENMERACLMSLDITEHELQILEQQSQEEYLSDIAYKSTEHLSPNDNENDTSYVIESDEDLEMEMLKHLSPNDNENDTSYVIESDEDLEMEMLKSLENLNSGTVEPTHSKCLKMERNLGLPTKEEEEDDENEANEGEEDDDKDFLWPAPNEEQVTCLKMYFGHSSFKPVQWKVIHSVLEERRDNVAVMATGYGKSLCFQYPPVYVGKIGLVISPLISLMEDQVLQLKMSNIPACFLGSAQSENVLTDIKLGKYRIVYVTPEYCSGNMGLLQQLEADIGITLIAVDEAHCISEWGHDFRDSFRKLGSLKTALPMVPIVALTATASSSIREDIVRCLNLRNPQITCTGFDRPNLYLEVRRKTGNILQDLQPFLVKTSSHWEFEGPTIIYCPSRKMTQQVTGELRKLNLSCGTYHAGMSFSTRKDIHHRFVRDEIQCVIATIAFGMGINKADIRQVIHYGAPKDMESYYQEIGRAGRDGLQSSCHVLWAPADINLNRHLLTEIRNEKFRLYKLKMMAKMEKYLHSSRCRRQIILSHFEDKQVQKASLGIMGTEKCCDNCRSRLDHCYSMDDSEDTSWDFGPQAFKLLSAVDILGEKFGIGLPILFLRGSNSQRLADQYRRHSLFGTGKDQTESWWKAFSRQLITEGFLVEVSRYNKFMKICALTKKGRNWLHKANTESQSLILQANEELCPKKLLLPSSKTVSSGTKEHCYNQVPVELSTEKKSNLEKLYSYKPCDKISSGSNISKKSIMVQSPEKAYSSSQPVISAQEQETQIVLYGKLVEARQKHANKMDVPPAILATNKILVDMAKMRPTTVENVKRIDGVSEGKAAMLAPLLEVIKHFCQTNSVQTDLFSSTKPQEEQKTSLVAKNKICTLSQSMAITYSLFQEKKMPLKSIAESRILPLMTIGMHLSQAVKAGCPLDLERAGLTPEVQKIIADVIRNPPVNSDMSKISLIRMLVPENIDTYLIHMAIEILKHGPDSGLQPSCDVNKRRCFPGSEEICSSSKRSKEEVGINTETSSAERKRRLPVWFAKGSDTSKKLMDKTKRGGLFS

IC50 [1] [µM] | Compound | CC50 [2] [µM]
0.00794 | Cc1nc2cc(S(=O)(=O)N(C)c3ccc([C@H]4CCC[C@@H](C(=O)Nc5ccc(C(F)(F)F)cc5F)[C@@H]4C(=O)O)cc3Br)ccc2n1C [Example 166, (1R,2S,6R)-2-(3-bromo-4-((N,1,2-trimethyl-1H-benzo[d]imidazole)-5-sulfonamido)phenyl)-6-((2-fluoro-4-(trifluoromethyl)phenyl)carbamoyl)cyclohexane-1-carboxylic acid] | 2.51
0.126 | CN1CCC[C@H](c2cccc(S(=O)(=O)N(C)c3ccc([C@H]4CCC[C@@H](COc5ccc(C(F)(F)F)cc5)[C@@H]4C(=O)O)cc3)c2)C1 (single isomer, unassigned) [Example 217, rel-(1R,2S,6R)-2-(4-((N-methyl-3-((S*)-1-methylpiperidin-3-yl)phenyl)sulfonamido)phenyl)-6-((4-(trifluoromethyl)phenoxy)methyl)cyclohexane-1-carboxylic acid] | 10
0.501 | Cc1nc2cc(S(=O)(=O)N(C)c3ccc([C@@H]4C[C@@H](N5CC[C@H](F)C5)C[C@H](C(=O)Nc5ccc(C(F)(F)F)cc5F)[C@H]4C(=O)O)cc3)ccc2n1C (stereo in doubt) [Example 379, rel-(1R*,2R*,4S*,6S*)-2-((2-fluoro-4-(trifluoromethyl)phenyl)carbamoyl)-4-((S)-3-fluoropyrrolidin-1-yl)-6-(4-((N,1,2-trimethyl-1H-benzo[d]imidazole)-5-sulfonamido)phenyl)cyclohexane-1-carboxylic acid] | 20
0.01 | Cc1nc2cc(S(=O)(=O)N(C)c3ccc([C@H]4C[C@@H](Oc5ccccc5)C[C@@H](C(=O)Nc5ccc(C(F)(F)F)cc5F)[C@@H]4C(=O)O)cc3)ccc2n1C (single isomer, unassigned) [Example 152] | 2
0.00251 | Cc1nc2cc(S(=O)(=O)N(C)c3ccc([C@H]4CCC[C@@H](C(=O)N[C@H]5CC[C@H](C6CCC6)CC5)[C@@H]4C(=O)O)cc3)ccc2n1C [Example 188, (1R,2R,6S)-2-(((1r,4R)-4-cyclobutylcyclohexyl)carbamoyl)-6-(4-((N,1,2-trimethyl-1H-benzo[d]imidazole)-5-sulfonamido)phenyl)cyclohexane-1-carboxylic acid] | 2.51
0.398 | Cc1nc2cc(S(=O)(=O)N(C)c3ccc([C@@H]4C[C@H](N5CCC[C@@H](F)C5)C[C@H](C(=O)Nc5ccc(C(F)(F)F)cc5F)[C@H]4C(=O)O)cc3)ccc2n1C (stereo in doubt) [Example 345, rel-(1R*,2R*,4R*,6S*)-2-((2-fluoro-4-(trifluoromethyl)phenyl)carbamoyl)-4-((R)-3-fluoropiperidin-1-yl)-6-(4-((N,1,2-trimethyl-1H-benzo[d]imidazole)-5-sulfonamido)phenyl)cyclohexane-1-carboxylic acid] | 12.6
0.1 | Cc1nc2cc(S(=O)(=O)N(C)c3ccc([C@H]4C[C@@H](N5CC6(F)CC5C6)C[C@@H](C(=O)Nc5ccc(C(F)(F)F)cc5F)[C@@H]4C(=O)O)cc3)ccc2n1C (relative stereo) [Example 398, rel-(1R,2R,4R,6S)-2-((2-fluoro-4-(trifluoromethyl)phenyl)carbamoyl)-4-(4-fluoro-2-azabicyclo[2.1.1]hexan-2-yl)-6-(4-((N,1,2-trimethyl-1H-benzo[d]imidazole)-5-sulfonamido)phenyl)cyclohexane-1-carboxylic acid] | 25.1
0.00158 | Cc1nc2cc(S(=O)(=O)N(C)c3ccc([C@H]4C[C@@H](OCC5COC5)C[C@@H](C(=O)Nc5ccc(C(F)(F)F)cc5F)[C@@H]4C(=O)O)cc3)ccc2n1C (relative stereo) [Example 282, rel-(1R,2R,4R,6S)-2-((2-fluoro-4-(trifluoromethyl)phenyl)carbamoyl)-4-(oxetan-3-ylmethoxy)-6-(4-((N,1,2-trimethyl-1H-benzo[d]imidazole)-5-sulfonamido)phenyl)cyclohexane-1-carboxylic acid] | 0.0631
1.58 | Cc1nc2cc(S(=O)(=O)N(C)c3ccc([C@@H]4C[C@H](OCC5CC6CCC(C5)O6)C[C@H](C(=O)Nc5ccc(C(F)(F)F)cc5F)[C@H]4C(=O)O)cc3)ccc2n1C (single isomer, unassigned) [Example 359] | 12.6
0.794 | O=C(O)[C@@H]1[C@@H](c2ccc(-c3ccco3)cc2)CCC[C@H]1C(=O)Nc1ccc(C(F)(F)F)cc1F [Example 9, (1R,2R,6S)-2-((2-fluoro-4-(trifluoromethyl)phenyl)carbamoyl)-6-(4-(furan-2-yl)phenyl)cyclohexane-1-carboxylic acid] | 25.1
0.631 | O=C(O)[C@@H]1[C@@H](c2ccc(-c3nsc4ccccc34)cc2)CCC[C@H]1C(=O)Nc1ccc(C(F)(F)F)cc1F [Example 36, (1R,2S,6R)-2-(4-(benzo[d]isothiazol-3-yl)phenyl)-6-((2-fluoro-4-(trifluoromethyl)phenyl)carbamoyl)cyclohe xane-1-carboxylic acid] | 5.01
0.00158 | CN(c1ccc([C@H]2CCC[C@@H](C(=O)Nc3ccc(C(F)(F)F)cc3F)[C@@H]2C(=O)O)cc1)S(=O)(=O)c1ccc2[nH]cnc2c1 (single isomer, unassigned) [Example 86] | 2.51
0.002 | Cc1nc2cc(S(=O)(=O)N(C)c3ccc([C@@H]4CCC[C@H](C(=O)Nc5ccc(C(F)(F)F)cc5F)[C@H]4C(=O)O)cc3C#N)ccc2n1C (single isomer, unassigned) [Example 162] | 3.16
0.00316 | CN(c1ccc([C@H]2CCC[C@@H](C(=O)Nc3ccc(C(F)(F)F)cc3F)[C@@H]2C(=O)O)cc1)S(=O)(=O)c1ccc2c(c1)CN(C(=O)C(F)(F)F)CC2 [Example 108, (1R,2R,6S)-2-((2-fluoro-4-(trifluoromethyl)phenyl)carbamoyl)-6-(4-((N-methyl-2-(2,2,2-trifluoroacetyl)-1,2,3,4-tetrahydroisoquinoline)-7-sulfonamido)phenyl)cyclohexane-1-carboxylic acid] | 2
1.58 | Cc1nc2cc(S(=O)(=O)N(C)c3ccc([C@@H]4C[C@H](OCC5CCOCC5)C[C@H](C(=O)Nc5ccc(C(F)(F)F)cc5F)[C@H]4C(=O)O)cc3)ccc2n1C (stereo in doubt) [Example 354, rel-(1R,2R,4R,6S)-2-((2-fluoro-4-(trifluoromethyl)phenyl)carbamoyl)-4-((tetrahydro-2H-pyran-4-yl)methoxy)-6-(4-((N,1,2-trimethyl-1H-benzo[d]imidazole)-5-sulfonamido)phenyl)cyclohexane-1-carboxylic acid] | 20
0.0398 | CN(c1ccc([C@H]2CCC[C@@H](C(=O)Nc3ccc(C(F)(F)F)cc3F)[C@@H]2C(=O)O)cc1)S(=O)(=O)c1c(Cl)cc(C(F)(F)F)cc1Cl [Example 104, (1R,2S,6R)-2-(4-((2,6-dichloro-N-methyl-4-(trifluoromethyl)phenyl)sulfonamido)phenyl)-6-((2-fluoro-4-(trifluoromethyl)phenyl)carbamoyl)cyclohexane-1-carboxylic acid] | 3.98
0.251 | COC12CC(CO[C@@H]3C[C@H](C(=O)Nc4ccc(C(F)(F)F)cc4F)[C@@H](C(=O)O)[C@H](c4ccc(N(C)S(=O)(=O)c5ccc6c(c5)nc(C)n6C)cc4)C3)(C1)C2 (relative stereo) [Example 331, rel-(1R,2R,4R,6S)-2-((2-fluoro-4-(trifluoromethyl)phenyl)carbamoyl)-4-((3-methoxybicyclo[1.1.1]pentan-1-yl)methoxy)-6-(4-((N,1,2-trimethyl-1H-benzo[d]imidazole)-5-sulfonamido)phenyl)cyclohexane-1-carboxylic acid] | 20
0.00501 | N#Cc1ncc(-c2ccc([C@H]3CCC[C@@H](C(=O)Nc4ccc(C(F)(F)F)cc4F)[C@@H]3C(=O)O)cc2)cn1 [Example 54, (1R,2S,6R)-2-(4-(2-cyanopyrimidin-5-yl)phenyl)-6-((2-fluoro-4-(trifluoromethyl)phenyl)carbamoyl)cyclohexane-1-carboxylic acid] | 7.94
0.0794 | Nc1ccccc1-c1ccc([C@H]2CCC[C@@H](C(=O)Nc3ccc(C(F)(F)F)cc3F)[C@@H]2C(=O)O)cc1 [Example 24, (1R,2S,6R)-2-(2′-amino-[1,1′-biphenyl]-4-yl)-6-((2-fluoro-4-(trifluoromethyl)phenyl)carbamoyl)cyclohexane-1-carboxylic acid] | 15.8
0.00631 | Cc1nc2ccc(S(=O)(=O)N(C)c3ccc([C@H]4CCC[C@@H](C(=O)Nc5ccc(C(F)(F)F)cc5F)[C@@H]4C(=O)O)cc3)cc2n1C [Example 131, (1R,2R,6S)-2-((2-fluoro-4-(trifluoromethyl)phenyl)carbamoyl)-6-(4-((N,1,2-trimethyl-1H-benzo[d]imidazole)-6-sulfonamido)phenyl)cyclohexane-1-carboxylic acid] | 3.98
0.631 | Cc1nc2cc(S(=O)(=O)N(C)c3ccc([C@@H]4CCC[C@H](C(=O)Nc5ccc(C(F)(F)F)cc5F)[C@H]4C(=O)O)cc3F)ccc2n1C (single isomer, unassigned) [Example 369] | 12.6

Compound | IC50 [1] [µM] | CC50 [2] [µM]
CN(c1ccc([C@H]2CCC[C@@H](C(=O)Nc3ccc(C(F)(F)F)cc3F)[C@@H]2C(=O)O)cc1)S(=O)(=O)c1ccc(C2CCN(C(=O)OC(C)(C)C)CC2)cc1 [Example 115, (1R,2S,6R)-2-(4-((3-(1-(tert-butoxycarbonyl)piperidin-4-yl)-N-methylphenyl)sulfonamido)phenyl)-6-((2-fluoro-4-(trifluoromethyl)phenyl)carbamoyl)cyclohexane-1-carboxylic acid] | 0.00501 | 1.26

Source: patent US12662451B2, “Chemical compounds and uses thereof” (GLAXOSMITHKLINE INTELLECTUAL PROPERTY (NO.4) LIMITED, priority 2023, dated 2026)
